Measured values published in paper PMC6332334, “3-H-[1,2]Dithiole as a New Anti-Trypanosoma cruzi Chemotype: Biological and Mechanism of Action Studies” (Molecules, 2015).

Columns and labels:
[1] = system: membrane sterol biosynthesis in epimastigotes of Y strain of T. cruzi; experiment: Inhibition of membrane sterol biosynthesis (qualitative TLC); format: cell-based, Trypanosoma cruzi; settings: compounds at their IC50, 72 h, 28 °C, compared to control
Protocol: To do so, we analyzed the accumulation or depletion of some intermediates or final products of this biochemical pathway. Qualitative analyses were performed by thin layer chromatography (TLC).
The parasites, epimastigotes of Y strain of T. cruzi (DTU Tc II), were grown in 6 mL of BHT milieu in culture bottles. […] A negative control was performed with parasites in the absence of compounds. […] The extraction of membrane sterols was performed on completion of the incubation. For this purpose, the content of the culture bottle was centrifuged at 3000 rpm for 10 min, the supernatant was discarded and the pellet was suspended in sodium phosphate buffer solution (6 mL, 0.05 M, pH 7.4). Then it was centrifuged again at 3000 rpm for 10 min and the supernatant was discarded. The resulting pellet was resuspended in a chloroform/methanol (2:1) mixture (5 mL) and the suspension was kept at 4 °C for 12 h. Then, a saturated NaCl solution (5 mL) was added and the mixture extracted once with chloroform (3 mL) and once with hexane (3 mL) with care to avoid taking any aqueous phase. The extracted volume was applied to a silica gel TLC plate. Chromatography was performed eluting with hexane, two runs to identify squalene, and once with hexane/EtOAc (8:2) for ergosterol. […] Also, controls and commercial samples of ergosterol, lanosterol, cholesterol and squalene were run on the TLC plate. […]

[2] = system: J774.1 murine macrophages; experiment: Unspecific in vitro cytotoxicity of mammalian cells (MTT); format: cell-based; settings: Mus musculus, 48 h exposure, read-out: IC50 against Macrophages
Protocol: (§1) To evaluate the anti-trypanosomal activity of the synthesized 3H-[1,2]dithioles we used T. cruzi, Tulahuen 2 strain (discrete typing unit, DTU, TcVI [18]) in the epimastigote form. […] To establish the selectivity of the compounds against the parasite, unspecific cytotoxicity against mammalian cells (J774.1 murine macrophages) was studied for the most relevant derivatives. The selectivity indexes (SI) were also determined (Table 1).
J774.1 murine macrophage cells (ATCC, Manassas, VA, USA) were grown in DMEM culture milieu containing 4 mM L-glutamine and supplemented with 10% heat-inactivated fetal calf serum. […] Afterwards, cells were exposed for 48 h to the compounds (25–400 μM) or vehicle for control (0.4% DMSO), and additional controls (cells in medium) were used in each test. Cell viability was then assessed by measuring the mitochondria-dependent reduction of MTT (3-(4,5-dimethylthiazol-2-yl)-2,5-diphenyltetrazolium bromide) to formazan. For this purpose, MTT in sterile PBS (0.2% glucose) pH 7.4 was added to the macrophages to achieve a final concentration of 0.1 mg/mL and the cells were incubated at 37 °C for 3 h. After removing the medium, formazan crystals were dissolved in 180 μL of DMSO and 20 μL of MTT buffer (0.1 M glycine, 0.1 M NaCl, 0.5 mM EDTA, pH 10.5) and the absorbance at 560 nm was measured. The IC50 was defined as the drug concentration at which 50% of the cells were viable, relative to the control (no drug added), and was determined by analysis using OriginLab8.5® sigmoidal regression (% of viable cells vs. logarithm of the compound concentration). Samples were performed in triplicate.

[3] = molecular target: T1, Trypanosoma cruzi triosephosphate isomerase (TcTIM) (Trypanosoma cruzi, UniProt P52270); experiment: Inhibition of enzymatic activity of TcTIM; format: biochemical
T1 construct: made in house; host or cells: Escherichia coli
Protocol: In order to investigate if the 3H-[1,2]dithioles inhibit TcTIM, we initially tested the inhibitory capacity of the compounds at a concentration of 200 μM and then at 25 μM.
Expression and purification of protein: TcTIM was expressed in Escherichia coli and purified as described in the literature. After purification, the enzyme, dissolved in 100 mM triethanolamine, 10 mM EDTA and 1 mM dithiothreitol (pH 8), was precipitated with ammonium sulfate (75% saturation) and stored at 4 °C. Before use, extensive dialysis against 100 mM triethanolamine/10 mM EDTA (pH 7.4) was performed. Protein concentration was determined by absorbance at 280 nm (ε = 36,440 M^−1·cm^−1).
Enzymatic activity assays. Enzymatic activity was determined following the conversion of glyceraldehyde 3-phosphate into dihydroxyacetone phosphate. The decrease in absorbance at 340 nm was followed in a multicell Cary spectrophotometer at 25 °C. The reaction mixture (1 mL, pH 7.4) contained 100 mM triethanolamine, 10 mM EDTA, 0.2 mM NADH, 1 mM glyceraldehyde 3-phosphate, and 0.9 units of α-glycerol phosphate dehydrogenase. The reaction was initiated by addition of 5 ng/mL of the TcTIM.
For inactivation studies, TcTIM was incubated at a concentration of 5 mg/mL in a buffer containing 100 mM triethanolamine, 10 mM EDTA, pH 7.4 and 10% of DMSO at 36 °C. The mixture also contained the compounds at the indicated concentrations. Compounds were dissolved in DMSO. After 2 h, […] was withdrawn and added to 1 mL of reaction mixture for the activity assay. None of the molecules tested here affected the activity of α-glycerol phosphate dehydrogenase, the enzyme used for trapping the product.
The IC50 value was taken as the concentration of drug needed to reduce the enzymatic activity to 50%. The experiments were performed in triplicate.

[4] = system: epimastigotes of T. cruzi (Tulahuen 2 strain); experiment: Anti-T. cruzi test in vitro (epimastigote growth inhibition); format: cell-based, Trypanosoma cruzi
Protocol: as §1
We used epimastigotes of the Tulahuen 2 strain (DTU, Tc VI) growing in an axenic milieu (BHI-Tryptose). Cells from a 5–7-day-old culture were inoculated in fresh culture milieu to give an initial concentration of 1 × 10^6 cells/mL. The absorbance at 600 nm of the cells in culture was measured every day. At day 5, the milieu was inoculated with different quantities of the compounds from a stock solution in DMSO (DMSO concentration in the culture milieu never exceeded 0.4%). The control was made in the presence of 0.4% DMSO and in the absence of compounds. […] At day 5, the absorbance of the culture was measured and related to the control. The IC50 value was taken as the concentration of drug needed to reduce the absorbance ratio to 50%.

cruzipain = molecular target: T2, cruzipain (Trypanosoma cruzi, UniProt P25779); experiment: Inhibition of T. cruzi cruzipain (Z-Phe-Arg-AMC fluorogenic substrate); format: biochemical; settings: isolated enzyme
T2 construct: endogenous in cells; host or cells: T. cruzi epimastigotes, Tulahuen 2 strain
T2 sequence (P25779 123-467): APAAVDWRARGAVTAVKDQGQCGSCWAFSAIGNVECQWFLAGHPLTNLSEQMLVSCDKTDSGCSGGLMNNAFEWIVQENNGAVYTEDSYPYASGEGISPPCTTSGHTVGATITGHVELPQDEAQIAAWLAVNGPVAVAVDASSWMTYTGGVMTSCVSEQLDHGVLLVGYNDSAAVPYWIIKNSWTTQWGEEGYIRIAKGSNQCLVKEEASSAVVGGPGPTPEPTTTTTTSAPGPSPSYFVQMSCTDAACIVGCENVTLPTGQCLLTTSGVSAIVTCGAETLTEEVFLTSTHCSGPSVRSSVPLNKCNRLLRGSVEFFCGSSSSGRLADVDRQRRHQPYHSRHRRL

T1 sequence (P52270 whole entry): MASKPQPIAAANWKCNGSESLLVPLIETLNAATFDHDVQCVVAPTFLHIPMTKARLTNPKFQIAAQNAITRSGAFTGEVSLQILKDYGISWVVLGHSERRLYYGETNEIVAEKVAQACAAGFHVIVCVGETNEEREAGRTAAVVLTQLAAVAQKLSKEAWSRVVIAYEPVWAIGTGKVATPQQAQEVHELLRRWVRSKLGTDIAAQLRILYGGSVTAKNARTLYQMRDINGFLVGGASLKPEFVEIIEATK

inhibition at 25 µM ([3]; percentage of enzymatic inhibition at 25 μM, read-out: TcTIM % Inhib25): 48 ± 4%
inhibition at 200 µM ([3]; percentage of enzymatic inhibition at 200 μM, read-out: TcTIM % Inhib200): 72%
IC50 (cruzipain): 15.5 ± 2.7 µM
Structure (SMILES): CC(=O)COc1ccc(C2=C/C(=C(\SCC(C)=O)C(C)=O)SS2)cc1 [Derivative 2]
Changes in membrane sterols and intermediates (squalene, ergosterol) [1]: accumulate squalene and deplete ergosterol
IC50 [2]: 24 ± 1 µM
IC50 ([4]; Trypanosoma cruzi, epimastigotes, Tulahuen 2 strain, triplicate, read-out: IC50 against T. cruzi): 7.7 ± 1.4 µM
SI (selectivity index) ([4]; macrophages (J774.1) vs T. cruzi epimastigotes): 3.1
